The values that follow come from PubChem BioAssay (NCI).

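Growth conditions: 96-well plates. Treatment: test compound, 48 hours, 5 concentrations. Analysis: linear interpolation between bracketing concentrations; unreached endpoints set to highest concentration. At the TGI there is no net growth.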

Some test systems named below: A549 NSCLC; HCT-116 colon; HOP-62 NSCLC; HOP-92 NSCLC; MOLT-4 leukemia; NCI-H23 lung; NCI-H522 lung; OVCAR-3 ovarian; SK-MEL-2 melanoma; SK-MEL-28 melanoma; TK-10 renal.
What all share (assay): DTP human tumour cell line panel, 48 h

Broadly, the TGI is the concentration at which net growth stops. Read a high TGI as lower sensitivity of the cells. Regarding `Brc1ccc(CCNCCN2CCCCC2)cc1`, the TGI was 30 µM in the assay with A549 NSCLC; 24.4 µM with HCT-116 colon; 34.9 µM with HOP-62 NSCLC; 23.5 µM in the assay with HOP-92 NSCLC; over 100 µM with MOLT-4 leukemia; 37 µM in the assay with NCI-H23 lung. Moreover, the TGI in the assay with NCI-H522 lung was found to be 30.3 µM; with OVCAR-3 ovarian it was 29.7 µM; in the assay with SK-MEL-2 melanoma it was 34.5 µM; in the assay on SK-MEL-28 melanoma it was 24.1 µM; with TK-10 renal, 28.8 µM.
Take `CN(CCC#N)c1ccc(/C=C2\SC(=S)NC2=O)cc1`: the TGI in the assay with A549 NSCLC, in the assay on HCT-116 colon, with HOP-62 NSCLC, in the assay on HOP-92 NSCLC, in the assay with MOLT-4 leukemia and in the assay on NCI-H23 lung was over 100 µM each time. Further, the TGI in the assay with NCI-H522 lung is over 100 µM; in the assay with OVCAR-3 ovarian, 67.9 µM; with SK-MEL-2 melanoma, over 100 µM; in the assay on SK-MEL-28 melanoma it was over 100 µM; in the assay with TK-10 renal, over 100 µM.
In the case of `C[C@@]12[C@H]3CC[C@@H]1[C@H](O)C(=O)N2CC3`, the TGI in the assay with A549 NSCLC, in the assay on HOP-62 NSCLC, in the assay with HOP-92 NSCLC, with MOLT-4 leukemia, in the assay on NCI-H23 lung and in the assay with NCI-H522 lung was over 100 µM each time. Also, the TGI in the assay with OVCAR-3 ovarian, in the assay on SK-MEL-2 melanoma, in the assay with SK-MEL-28 melanoma and in the assay with TK-10 renal was over 100 µM throughout.
`CCOP(=O)(OCC)/C(C#N)=C/c1cnc(-c2ccccc2)[nH]1`: the concentration for total growth inhibition (TGI) in the assay on A549 NSCLC, in the assay on HCT-116 colon, in the assay with HOP-62 NSCLC, in the assay on HOP-92 NSCLC, in the assay with MOLT-4 leukemia and with NCI-H23 lung was over 100 µM each time. The total growth inhibition concentration (TGI) with NCI-H522 lung, in the assay on OVCAR-3 ovarian, in the assay with SK-MEL-2 melanoma and in the assay on SK-MEL-28 melanoma was over 100 µM throughout.
In the case of `CCOC(=O)C1Cc2[nH]c3ccccc3c2C(C)C1C` (centres undefined), the total growth inhibition concentration (TGI) is 34.8 µM in the assay with A549 NSCLC; 32.6 µM in the assay with HCT-116 colon; 32 µM in the assay on HOP-92 NSCLC; 42 µM in the assay with MOLT-4 leukemia; 27.3 µM with NCI-H23 lung; 26.6 µM with NCI-H522 lung. Also, the TGI turned out to be 30.1 µM in the assay on OVCAR-3 ovarian, 36 µM in the assay with SK-MEL-2 melanoma, 33.7 µM in the assay on SK-MEL-28 melanoma and 76 µM in the assay on TK-10 renal.
As for `C=C(C)C12CC(COC(=O)c3ccccc3)C34OC5(OC1C3C1OC1(CO)C(O)C1(O)C(OC(=O)c3ccccc3)C(C)C(C(C)CCCCCCC5O)C14)O2` (centres undefined), the total growth inhibition concentration (TGI) in the assay on HCT-116 colon, in the assay with HOP-92 NSCLC, in the assay on NCI-H23 lung, in the assay with NCI-H522 lung, with OVCAR-3 ovarian and in the assay with SK-MEL-2 melanoma was over 100 µM in each case. Further, the TGI with SK-MEL-28 melanoma is over 100 µM; with TK-10 renal, 81.2 µM.
As for `CC1(C)OCC(COC(=O)C=[N+]=[N-])O1` (centres undefined), the total growth inhibition concentration (TGI) with HCT-116 colon, with HOP-62 NSCLC, in the assay on HOP-92 NSCLC, in the assay with MOLT-4 leukemia, in the assay on NCI-H23 lung and with NCI-H522 lung was over 100 µM in each case. The TGI in the assay on OVCAR-3 ovarian, in the assay on SK-MEL-2 melanoma, with SK-MEL-28 melanoma and in the assay with TK-10 renal was over 100 µM each time.
Turning to `CC(=O)OCC(C)C1=C(O)C(=O)C2(C)C/C=C(/C)CC/C=C(\C)CCC(O)C(C)CCC12` (centres undefined), the TGI came out at 33.8 µM in the assay with A549 NSCLC; 32.8 µM with HCT-116 colon; 32.8 µM in the assay with HOP-62 NSCLC; 33.7 µM in the assay on HOP-92 NSCLC; 28.6 µM in the assay on MOLT-4 leukemia; 36.6 µM in the assay with NCI-H23 lung. The concentration for total growth inhibition (TGI) in the assay on NCI-H522 lung amounted to 32.6 µM; in the assay with OVCAR-3 ovarian, 29.3 µM; in the assay with SK-MEL-2 melanoma, 39.3 µM; in the assay with SK-MEL-28 melanoma, 31.7 µM; in the assay with TK-10 renal, 35.9 µM.
For `CCN(CC)CCc1c2c(nc3ccccc13)C(=O)c1cccnc1C2=O`, the total growth inhibition concentration (TGI) was 8.65 µM in the assay with A549 NSCLC; 3.53 µM in the assay on HCT-116 colon; 11.8 µM in the assay with HOP-62 NSCLC; 40.1 µM in the assay on HOP-92 NSCLC; 8.53 µM in the assay on NCI-H23 lung; 6.46 µM with NCI-H522 lung. In addition, the concentration for total growth inhibition (TGI) is 5.8 µM in the assay with OVCAR-3 ovarian, 10.4 µM in the assay on SK-MEL-2 melanoma, 7.27 µM with SK-MEL-28 melanoma and 12.6 µM with TK-10 renal.
`COc1ccc(-c2cc(-c3ccco3)c(C#N)c(=S)n2C2OC(COC(C)=O)C(OC(C)=O)C(OC(C)=O)C2OC(C)=O)cc1` (centres undefined): the TGI in the assay on A549 NSCLC was 24.5 µM; in the assay with HCT-116 colon, 22.8 µM; with HOP-62 NSCLC, 8.88 µM; in the assay on HOP-92 NSCLC, 13 µM; in the assay on MOLT-4 leukemia it was over 100 µM; with NCI-H522 lung, 18 µM. The total growth inhibition concentration (TGI) in the assay on OVCAR-3 ovarian was 19.7 µM; with SK-MEL-28 melanoma, 12.7 µM; with TK-10 renal it was 45.1 µM.
Regarding `Nc1ccc2nc(-c3ccccn3)c(-c3ccccn3)nc2c1`, the TGI in the assay on A549 NSCLC, with HCT-116 colon, in the assay on HOP-92 NSCLC, in the assay on MOLT-4 leukemia, in the assay on NCI-H522 lung and with OVCAR-3 ovarian was over 100 µM throughout. Besides, the concentration for total growth inhibition (TGI) in the assay on SK-MEL-2 melanoma, in the assay with SK-MEL-28 melanoma and in the assay with TK-10 renal was over 100 µM throughout.
For `CCOC(=O)CNC(=O)C(CSCc1ccc(Br)cc1)NC(=O)CCC(N)C(=O)OCC` (centres undefined), the TGI with A549 NSCLC, in the assay with HCT-116 colon, in the assay with HOP-62 NSCLC, with HOP-92 NSCLC, in the assay on MOLT-4 leukemia and in the assay with NCI-H23 lung was over 50 µM each time. The TGI in the assay on NCI-H522 lung, in the assay with OVCAR-3 ovarian, with SK-MEL-2 melanoma and in the assay on SK-MEL-28 melanoma was over 50 µM throughout.
In the case of `CC1(O)CC(C(F)(F)F)(C(F)(F)F)OC1=O` (centres undefined), the concentration for total growth inhibition (TGI) with A549 NSCLC, in the assay with HCT-116 colon, in the assay with HOP-62 NSCLC, in the assay on HOP-92 NSCLC, with MOLT-4 leukemia and with NCI-H23 lung was over 10 µM throughout. The TGI in the assay with NCI-H522 lung, in the assay with OVCAR-3 ovarian, in the assay on SK-MEL-28 melanoma and in the assay with TK-10 renal was over 10 µM throughout.
